Results reported in US9605042B2, “Compositions and methods related to tauopathy” (REGENTS OF THE UNIVERSITY OF MINNESOTA, priority 2012, dated 2017).
Peptide text beside a SMILES is read from it. * marks the point of attachment. Cbz = O=C(OCc1ccccc1)*; CH2F = FC*

What was measured:
caspase-7 = biological target: T1, caspase-7 (Homo sapiens, UniProt P55210); experiment: competitive binding assay against caspase-7 (PROMEGA-GLO 2); conditions: read-out: K value (caspase-7)
T1 sequence (P55210 24-198 limits assumed): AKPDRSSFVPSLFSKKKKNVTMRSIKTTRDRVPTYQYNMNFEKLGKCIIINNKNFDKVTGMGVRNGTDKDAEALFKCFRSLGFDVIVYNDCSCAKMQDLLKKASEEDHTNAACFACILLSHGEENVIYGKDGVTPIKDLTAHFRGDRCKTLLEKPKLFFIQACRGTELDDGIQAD
T1 sequence (P55210 207-303 limits assumed): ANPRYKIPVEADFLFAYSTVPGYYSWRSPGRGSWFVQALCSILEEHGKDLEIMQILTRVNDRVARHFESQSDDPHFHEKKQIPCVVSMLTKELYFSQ

recombinant caspase-2 = biological target: T2, recombinant caspase-2 (Homo sapiens, UniProt P42575); experiment: Screening assay: caspase-2-mediated cleavage of Asp314 peptide substrate (LabChip); assay type: biochemical; conditions: substrate coincubated with recombinant caspase-2 and inhibitor, fluorescence by LabChip
T2 construct: made in house
T2 sequence (P42575 170-325 limits assumed): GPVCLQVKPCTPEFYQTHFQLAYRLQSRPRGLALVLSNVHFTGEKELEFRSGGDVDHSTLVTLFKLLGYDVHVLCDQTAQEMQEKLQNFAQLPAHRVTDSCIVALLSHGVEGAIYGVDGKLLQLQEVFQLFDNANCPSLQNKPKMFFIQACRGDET
T2 sequence (P42575 348-452 limits assumed): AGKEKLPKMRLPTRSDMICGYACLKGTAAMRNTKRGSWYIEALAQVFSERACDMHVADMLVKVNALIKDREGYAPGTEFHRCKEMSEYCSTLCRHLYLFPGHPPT
Experimental: FIG. 10. Caspase-2-mediated cleavage of Asp314 peptide substrate. Synthetic peptide substrate FITC-AHX-GSVQIVYKPVDLSKVTS-COOH (SEQ ID NO:4) was designed based on amino acids 304-320 of tau protein that encompasses Asp314 cleavage site. The peptide substrate was cleaved by coincubating with recombinant caspase-2 and was separated from cleavage product by using LabChip drug discovery system. The fluorescence emitted by FITC group was monitored to measure peptide quantity.
FIG. 11. Caspase inhibitor blocks caspase-2-mediated cleavage of Asp314 peptide substrate. Synthetic peptide substrate was coincubated with recombinant caspase-2 in the presence of general caspase inhibitor z-VAD-fmk. The fluorescence of the substrate peptide was measured by using LabChip drug discovery system.
Unless otherwise stated, chemicals were purchased from Sigma-Aldrich (St. Louis, Mo.). Caspase-2 was made in-house; reference Caspase-2 inhibitor Z-VAD-FMK was purchased from BD Pharmingen (San Diego, Calif.). […]
Plates were screened in a LabChip 3000 (Caliper Life Sciences Inc., Hopkinton, Mass.) with temperature and relative humidity set to 20° C. and 50%. A 12-sipper chip sampled contents from each well and measured the fluorescent intensity of the substrate and product peaks. […] Data were analyzed using Caliper's HTS Well Analyzer software.

[1] = system: recombinant caspases -1, -2, -3, -6, -7, -8, -9, or -10; experiment: Caspase cleavage assay of tau proteins (immunoblot with Tau-13); assay type: biochemical; conditions: 50 μM inhibitor, 37° C., 2 hours, tau from three sources
Experimental: FIG. 5. Caspase-2 cleaves tau in vitro, producing a 35 kDa fragment. Recombinant caspases -1, -2, -3, -6, -7, -8, -9, or -10 were incubated at 37° C. for 2 hours with tau proteins derived from three different sources. […] Caspases-1 and -8 may cleave tau proteins near the N-terminus and remove Tau-13 mAb epitopes, preventing detection of proteolytic products. Arrows denote the 35 kDa fragment, and arrowheads denote the tau fragment truncated at D421.
Tau proteins (200 ng immunoprecipitates from rTg[tauP301L]4510 or rTg[tauWT]21221 brain lysates, or 1 μl synthetic proteins generated with TNT T7 Quick Coupled Transcription/Translation System [Promega Corp., Madison, Wis.]) were diluted in assay buffer (20 mM HEPES pH 7.2, 10 mM DTT, 1 mM EDTA, 0.1% CHAPS) to a final volume of 50 μl. One unit of recombinant caspase was added to the reactions in the presence or absence of 50 μM z-VAD-fmk (Calbiochem, EMD Biochemicals, San Diego, Calif.). The reactions were incubated at 37° C. for […] and stopped by adding Laemmli sample buffer (62.5 mM Tris-HCl [pH 6.8], 25% glycerol, 2% SDS, and 0.01% bromophenol blue).

rat hippocampal neurons = experiment: GFP-tau-containing dendritic spines in neurons coexpressing DsRed and GFP-tau; assay type: cell-based; conditions: rising concentration of caspase-2 inhibitor
Experimental: FIG. 15. Images of rat hippocampal neurons coexpressing Dsred and GFP-tagged wild-type tau or tau P301 L mutant. Neurons were treated with caspase-2 inhibitor Ac-VDVAD-CHO (SEQ ID NO:36) or caspase-3 inhibitor Ac-DEVD-CHO (SEQ ID NO:37) for 1 day.
FIG. 16. Quantification of total spines and GFP-tau-containing spines in neurons coexpressing DsRed and GFP-tau.
Based on methods described in Hoover et al., Neuron 2010, dissociated rat hippocampal primary neuron cultures were prepared. Briefly, a 25 mm glass coverslip (thickness, 0.08 mm) was glued over a 22 mm hole in the bottom of a 35 mm tissue culture dish using silicone sealant. Dissociated neuronal cultures from rat hippocampi at P1 were prepared. Neurons were plated onto prepared 35 mm tissue culture dishes at a density of 1×10^6 cells per dish. The age of cultured neurons was counted from the day of plating (1 DIV). Neurons at 7 DIV were transfected using a standard calcium phosphate precipitation method and allowed to grow to maturity (>3 weeks) to be imaged. Neurons were transfected with equivalent concentrations of constructs encoding various tau proteins. The plasmid encoding DsRed was cotransfected with tau constructs to visualize dendritic spines. Recombinant tau protein or TCP35 protein (10 μM) was directly added to culture medium 1 hour before imaging to stimulate neuronal cultures. […]

rTg4510 neurons = experiment: Excitatory synaptic transmission (mEPSCs) in rTg4510 neurons; assay type: cell-based, mouse; conditions: 20 μM for two hours
Experimental: FIG. 17. Excitatory Synaptic Transmission in rTg4510 neurons treated with caspase-2 inhibitor. (A) Mean mEPSC amplitudes of rTg4510 neurons (−/− and +/+) treated with 20 μM caspase-2 inhibitor (Ac-VDVAD-CHO; SEQ ID NO:36) for two hours. […] Caspase-2 inhibitor had no effect on rTg4510 (−/−) neurons. (B) Mean mEPSC frequency of rTg4510 neurons (−/− and +/+) treated with 20 μM caspase-2 inhibitor for two hours. Caspase-2 inhibitor had no effect on rTg4510 neurons (−/− or +/+) frequencies.
Miniature excitatory postsynaptic […] (mEPSCs) were recorded at −55 mV in artificial cerebrospinal fluid (aCSF) containing 100 LM AP7 (NMDAR antagonist, Tocris Bioscience, UK), 1 μM TTX (sodium channel blocker, Tocris Bioscience, UK) and 50 μM bicuculline (GABA receptor antagonist, Sigma-Aldrich, St. Louis, Mo.). Electrophysiology experiments were conducted using AXON DIGIDATA 1440A data acquisition system (Molecular Devices, LLC, Sunnyvale, Calif.), AXOPATCH 200B amplifier (Molecular Devices, LLC, Sunnyvale, Calif.), pCLAMP10 software (Molecular Devices. LLC, Sunnyvale, Calif.). Data was analyzed using AxoGraph X software (Berkeley, Calif.).

CC(=O)N[C@@H](Cc1ccc(O)cc1)C(=O)N[C@@H](CCCCN)C(=O)N1CCC[C@H]1C(=O)N[C@H](C(=O)N[C@H](C=O)CC(=O)O)C(C)C [SEQ ID NO:1, Ac-YKPVD-CHO] (Ac-YKPVD-aldehyde)
Ki (caspase-7): > 100 µM

benzyloxycarbonyl-Val-Ala-Asp-fluoromcthylketone (Cbz-Val-Ala-Asp-CH2F) [z-VAD-fmk]
caspase-2-mediated cleavage of Asp314 peptide substrate (recombinant caspase-2): blocks | cleavage of tau proteins by recombinant caspases [1]: blocked all cleavage

Ac-VDVAD-CHO (Ac-VDVAD-aldehyde)
number of spines with tau (rat hippocampal neurons): decreases | mean mEPSC amplitude, rTg4510 (−/−) neurons (rTg4510 neurons): no effect | mean mEPSC frequency, rTg4510 neurons (−/− or +/+) (rTg4510 neurons): no effect | mean amplitude of AMPA mEPSCs, rTg4510 (+/+) neurons (rTg4510 neurons; compared to vehicle): significantly increased
